Test results as given in patent US20100255020A1, “METHOD FOR INDUCING CYTOTOXIC T-CELLS, CYTOTOXIC T-CELL INDUCERS, AND PHARMACEUTICAL COMPOSITIONS AND VACCINES EMPLOYING THEM” (NEC CORPORATION, priority 2007, published 2010).
Values joined by “and” are separate entries in the source; they are usually repeats but may differ in a detail not shown here. Identical values can stand only once. Where no end group is shown, it is not given here.

Legend:
[1] = human, in vivo
Source text: Patients were monitored for adverse events after the peptide administration in accordance with evaluation criteria for an adverse event, CTCAE (Common Terminology Criteria for Adverse Events v3.0 by JCOG/JSCO-Oct. 27, 2004).
Adverse event was monitored up to 1 week after the last immunization.
Criteria for determining an adverse event is in accordance with CTCAE (Common Terminology Criteria for Adverse Events v3.0) by JCOG/JSCO-Oct. 27, 2004; when the grade was 2/3 the test therapy was suspended, and when the grade was 4 or greater, the test therapy was terminated regardless of causal relationship to the test therapy.

HLA-A*2402 molecule = HLA-A*2402 molecule (Homo sapiens, UniProt P04439, D101N/D140Y/D185E/E176V/E190D/F33S/G103R/G107R/I119L/I121M/I306V/K335N/L105A/L180Q/L300P/N151K/N90K/Q86E/Q94H/R106L/R138H/R89G/T104I/T345S/V100E/W191G/Y123F); experiment: Peptide binding to HLA-A*2402 molecule on C1R-A24 cells (flow cytometry, Kd); conditions: HLA-A*2402, C1R-A24 cells; read-out: Binding assay data (−log Kd) (converted)
Protocol: The ability of a peptide to bind to an HLA-A*2402 molecule, which is a product of the HLA-A*2402 gene, was measured using C1R-A24 cells expressing the HLA-A*2402 molecule (cells generated by Professor Masafumi Takiguchi, Kumamoto University being supplied with permission by Associate Professor Masaki Yasukawa, Ehime University).
C1R-A24 cells were first exposed to acidic conditions at a pH of 3.3 for 30 seconds, thus dissociating and removing a β2m light chain, which is associated with HLA class I molecules in common, and an endogenous peptide originally bound to the HLA-A*2402 molecule. After neutralization, purified β2m was added to C1R-A24 cells, the obtained product was added to serial dilutions of a peptide, and incubated on ice for 4 hours. […]
Subsequently, the number of MHC-pep complexes per C1R-A24 cell (proportional to the intensity of fluorescence of the above-mentioned fluorescent antibody) was quantitatively measured using a FACScan fluorescence-activated flow cytometer (Becton Dickinson Biosciences). A dissociation constant Kd value between the HLA-A*2402 molecule and the peptide was calculated from the average intensity of fluorescence per cell by a method published in the literature (Udaka et al., Immunogenetics, 51, 816-828, 2000).

malignant tumors = experiment: Peptide immunotherapy of patients, tumor response by RECIST criteria (CT/MRI); assay type: in vivo, human; set-up: key to RECIST, single lung metastasis / RECIST, total sum of longest diameters of 10 metastatic target lesions / RECIST, pubic bone metastatic tumor / RECIST determination 3 months after starting W10 peptide therapy: CR: all target lesions have disappeared; PR: the sum of the longest diameters of the target lesions decreases by at least 30%; PD: the sum of the longest diameters of the target lesions increases by at least 20%; SD: the change of tumr size is between PR or PD
Protocol: Among 18 patients, 3 people are illustrated in the style of case reports. […] The mixture was prepared immediately prior to administration. When W10 peptide was administered without petussis vaccine in the safety test, W10 peptide solution was divided into 4 equal portions and injected intradermally at 4 locations in the same manner. A method to measure the diameter of a tumor and a method to analyze peptide-specific T-cells using an HLA-A24 tetramer by flow cytometry are described below.
The international RECIST criteria referred to here is an evaluation standard described in Theresse, P. et al., J Natl Cancer Inst. 2000, 92, 205-216. When there is confirmation by helical CT or MRI that all target lesions have disappeared this is defined as CR (complete response), when the sum of the longest diameters of the target lesions decreases by at least 30% this is defined as PR (partial response), when the sum of the longest diameters of the target lesions increases by at least 20% this is defined as PD (progressive disease), and when the change of tumr size is between PR or PD this is defined as SD (stable disease). However, regardless of the presence or absence of a change in the target lesions, when even one new lesion appears this is defined as PD.
Based on the above-mentioned international RECIST criteria, which is used for evaluation of anticancer drugs, all measurable tumors were selected as target tumors, and change in the SLD of the tumors over the course of the therapy was monitored. In addition, number of all the tumors was counted, regardless of the size of a tumor, every time diagnostic imaging was carried out in order to lookout for new lesions. Diagnostic imaging was carried out in principle once a month by helical CT or MRI. If even one new metastasis appeared, regardless of the change in the primary lesion, it was judged as PD.
Clinical responses were evaluated according to the aforementioned international RECIST criteria for 18 patients who had been treated by immunotherapy using W10+Wc for at least 3 months and one week. Eight cased out of 18 patients were judged as SD, 10 cased were PD. […] In reports on peptide immunotherapy so far, the tumor control rate was limited to a few % up to ten or so % worldwide (Reference Documents 1 to 4). Compared with these already reported cases, this is a good reaction.

HLA-A*0206 molecule = target: T1, HLA-A*0206 molecule (Homo sapiens, UniProt P04439, D140Y/D185E/D98H/E176V/E277Q/F33Y/G131W/G231S/I119V/I121R/I166T/I218V/L300P/L318F/N151K/N90K/P208A/P217A/Q86G/Q94H/R138H/R169H/T345S); experiment: Peptide binding to HLA-A*0206 molecule on RA2.6 cells (flow cytometry, Kd); conditions: HLA-A*0206, RA2.6 cells; read-out: Binding assay data (−log Kd) (converted)
T1 construct: expressed in transfected cells; host or cells: RA2.6 (mouse TAP-deficient RMAS cells transfected with pMKITneo bearing HLA-A*0206 cDNA)
Protocol: The ability of a peptide to bind to an HLA-A*0206 molecule, which is a product of the HLA-A*0206 gene, was measured using RA2.6 cells (cell line newly generated in Kochi University), wherein cDNA of the HLA-A*0206 gene is introduced into RMAS, which is a mouse TAP (transporter associated with antigen processing)-deficient cell line.
RA2.6 cells were first cultured overnight at 26° C., during this incubation HLA-A*0206 molecules devoid of bound peptide accumulated. Serial dilutions of peptide were added to these cells and peptide binding was carried out at room temperature for 30 minutes.
Subsequently, culture was carried out at 37° C. for 3.5 hours, during this incubation empty HLA-A*0206 molecules to which no peptide was bound were denatured, and the tertiary structure was lost.
The cells were stained by adding thereto fluorescently-labeled monoclonal antibody BB7.2, which specifically recognizes the peptide-bound HLA-A*0206 molecule, and incubating on ice for 20 minutes.
Subsequently, the amount of fluorescence per cell was measured using a flow cytometer, and a dissociation constant Kd value was calculated by a method published in the literature (Udaka et al., Immunogenetics, 51, 816-828, 2000).

With ALLPAVPSL [W10] the “Adverse event due to peptide immunotherapy” value [1] was “no adverse event due to peptide immunotherapy was observed, except for an erythema and mild swelling at the site of immunization”, the “Creatinine (Cre) adverse event” value [1] was “Grade 2 increase of Cre” and the Kd (HLA-A*2402 molecule) was 0.692 nM. The “Duration of tumor control (weeks)” value (malignant tumors; one line per patient case, W10+Wc immunotherapy, weekly intradermal, listed as W10 peptide) was 37 weeks and 30 weeks and 32 weeks and 10 weeks and 4 weeks and 0 weeks (6×) and 6 weeks and 17 weeks and 19 weeks and 12 weeks and 33 weeks and 38 weeks, the “RECIST determination 3 months after starting W10 peptide therapy” value (malignant tumors; one line per patient case, W10+Wc immunotherapy, listed as W10 peptide) was “SD (7×) and SD > PD and PD (the sum of the longest diameters of the target lesions increases by at least 20%) (10×)” and the “RECIST, pubic bone metastatic tumor” value (malignant tumors; patient KB07-003, maintained for 37 weeks) was “SD”. For the same sequence, the New metastatic tumors (malignant tumors; patient KB07-003, since W10 therapy started) was “no new metastatic tumors have been found”, the “Growth of metastatic tumor in the bone (SLD)” value (malignant tumors; patient KB07-005, right femur) was “almost stopped” and the New distant metastasis (malignant tumors; patient KB07-005, throughout the period) was “no new distant metastasis was observed”. The “Growth of tumors expressing WT1” value (malignant tumors; patient KB07-006) was “suppressed”, the “Appearance of new metastatic lesion” value (malignant tumors; patient KB07-006, 13 months after starting W10 peptide) was “no appearance of a new metastatic lesion” and the “RECIST, total sum of longest diameters of 10 metastatic target lesions” value (malignant tumors; patient KB07-006, CT on the 37th week) was “PD (the sum of the longest diameters of the target lesions increases by at least 20%)”. For the same sequence, the “RECIST, total sum of longest diameters of 10 metastatic target lesions” value (malignant tumors; patient KB07-006, adenoid cystic carcinoma, up to 32 weeks) was “SD” and the Kd (HLA-A*0206 molecule) was 18.2 nM.
